Values joined by “and” are separate entries in the source; they are usually repeats but may differ in a detail not shown here. Equal values may be shown once.
Experiments:
[1] = system: cells of normals and HIV + patients; assay: Substrate panel in cells of normals and HIV+ patients, possible TB infection (Table 4); assay type: cell-based, human
Experimental: A panel of assay compounds are assembled consisting of Ala-aminopeptidase and Lys-aminopeptidase, Dipeptidyl peptidase IV (Ala-Ala)2 rhodamine 110 and Cathepsin D to indicate possible TB infection in AIDS related cases.
A panel of enzymatic substrates is performed consisting of Ala-aminopeptidase and Lys-aminopeptidase, Dipeptidyl peptidase IV (Ala-Ala)2 rhodamine 110 and Cathepsin D to indicate possible TB infection in AIDS related cases.

[2] = system: LYMPHOCYTES; assay: Disease to normal ratio of enzyme activity, lymphocytes (Table 5); assay type: cell-based, human
Source text: (§1) A normal in house adult donor pool was drawn, recording sex and determining that no known disease state was present at the time of sample draw. Criteria for rejecting samples included patients under medication, patients with infection or inflammation of any type, colds and flu as well as any known medical illness such as cancer, heart ailment and high blood pressure. A donor list of 75 patients has been developed and a mean and 2 sd range established. A subgroup of "super normals" was developed from this list by examining the 75 patients to determine which group falls closest to the mean for all enzymes in all cell types tested. These patients were used as the "wellness index" or best group of "normalcy" patients. If a study required the use of children or newborns then this same format was used to develop a data base for these age groups.

[3] = system: MONOCYTES; assay: Disease to normal ratio of enzyme activity, monocytes (Table 5); assay type: cell-based, human
Source text: as §1

[4] = system: amino peptidase; assay: Aminopeptidase activity in acute lympholytic Ficoll prepared lymphocytes; assay type: cell-based; conditions: FIG. 4B
Source text: The cell's ability to fight off an invader lies within its genetics and therefore cell type. The "readiness" however of any genetically capable group of cells to defend is different. A measure of this "readiness" is manifest in the available proteolytic enzymes contained within vacuoles or on the surface of the cell. The assay compound hydrolysis rate increases with increased mass of enzymes giving a picture of immune competence both in number of cells and activity level. […] Images were generated using Universal Imaging.

[5] = Modulators of sensitivity of rhodamine 110 substrates; assay type: cell-based; conditions: 1 mM
Source text: Modulators are components used to […] the sensitivity of the enzyme for the leaving group. The modulators speed up or slow down the activity of an enzyme by changing the active site. […] Preferred modulators for particular enzymes are included in Table 1.

[6] = Effect of sodium chloride on dipeptide reagent; assay type: cell-based; conditions: 7 mM, pH range 6.5 to 8.7
Source text: Inhibitors and poisons (or toxins) are components that can be added to reduce the activity of non-targeted enzymes that provide competing reactions for the leaving group. Inhibitors are usually very selective for a particular enzyme. For example, EDTA only works with enzymes requiring Ca^+2, Mg^+2 and some other metals. […] Preferred inhibitors for particular enzymes are included in Table 1.

[7] = Inflam. Bowel Dis., monocytes section

Row | Structure (SMILES) | MEAN DELTA FL ([1]; HIV + PATIENTS) | MEAN DELTA FL ([1]; NORMALS) | Ratio of disease to normal ([2]; Dermatomyositis) | Ratio of disease to normal ([2]; Inflam. Bowel Dis.) | Ratio of disease to normal ([2]; Lupus) | Ratio of disease to normal ([2]; Rheumatic Fever) | Ratio of disease to normal ([3]; Dermatomyositis, monocytes) | Ratio of disease to normal [3, 7] | Ratio of disease to normal ([3]; JRA, monocytes) | Ratio of disease to normal ([3]; Lupus, monocytes) | Ratio of disease to normal ([3]; Rheumatic Fever, monocytes) | other results
1 | NC(=O)CC[C@H](N)C(=O)N[C@@H](CO)C(=O)Nc1ccc2c(c1)Oc1cc(NC(=O)[C@H](CO)NC(=O)[C@@H](N)CCC(N)=O)ccc1C21OC(=O)c2ccccc21 (relative stereo) [GLN--SER*] | 13.7 and 12.7 | 11.9 and 6.1 | – | – | – | – | – | – | – | – | – | –
2 | C[C@H](N)C(=O)NCC(=O)Nc1ccc2c(c1)Oc1cc(NC(=O)CNC(=O)[C@H](C)N)ccc1C21OC(=O)c2ccccc21 [ALA--GLY****] | 39.9 | 48.0 | – | – | – | – | – | – | – | – | – | MEAN DELTA FL ([1]; HIV + PATIENTS, listed as ALA--GLY*): 29.7; MEAN DELTA FL ([1]; NORMALS, listed as ALA--GLY*): 31.6
3 | CC(C)C[C@H](N)C(=O)Nc1ccc2c(c1)Oc1cc(NC(=O)[C@@H](N)CC(C)C)ccc1C21OC(=O)c2ccccc21 [LEU, (Leu)2 Rho 110] | – | – | 1.36 | 1.34 | 1.93 | 1.05 | 1.35 | 1.13 | 1.44 | 44.44 | – | enzymatic activity [4]: lost their enzymatic activity
4 | C[C@H](NC(=O)[C@@H](N)CCCCN)C(=O)Nc1ccc2c(c1)Oc1cc(NC(=O)[C@H](C)NC(=O)[C@@H](N)CCCCN)ccc1C21OC(=O)c2ccccc21 [LYS--ALA^2] | 7.9 | 7.6 | – | – | – | – | – | – | – | – | – | MEAN DELTA FL ([1]; HIV + PATIENTS, listed as LYS--ALA^1): 121.5; MEAN DELTA FL ([1]; NORMALS, listed as LYS--ALA^1): 112.6
5 | O=C(NCC(=O)N1CCC[C@H]1C(=O)Nc1ccc2c(c1)Oc1cc(NC(=O)[C@@H]3CCCN3C(=O)CNC(=O)OCc3ccccc3)ccc1C21OC(=O)c2ccccc21)OCc1ccccc1 [Z-GP, (carbobenzyloxycarbonyl-Gly-Pro)2 Rho 110] | – | – | 1.73 | 1.73 | 1.93 | 3.23 | – | 1.64 | 1.34 | 1.88 | 3.56 | Ratio of disease to normal ([2]; JRA): 1.29; Ratio of disease to normal ([3]; Kawasaki's, monocytes): 4.06
6 | O=C(NCC(=O)N1CCC[C@H]1C(=O)Nc1ccc2c(c1)Oc1cc(NC(=O)[C@@H]3CCCN3C(=O)CNC(=O)OCc3ccccc3)ccc1C21OC(=O)c2ccccc21)OCc1ccccc1 [Z-GP-M, (carbobenzyloxycarbonyl-Gly-Pro)2 Rho 110 (modified)] | – | – | 3.45 | – | 2.09 | 4.09 | 3.05 | 3.33 | 1.79 | 1.92 | 2.99 | Ratio of disease to normal ([2]; Kawasaki's): 3.44; Ratio of disease to normal ([3]; Kawasaki's, monocytes): 4.47
7 | C[C@@H](O)[C@H](NC(=O)OCc1ccccc1)C(=O)N1CCC[C@H]1C(=O)Nc1ccc2c(c1)Oc1cc(NC(=O)[C@@H]3CCCN3C(=O)[C@@H](NC(=O)OCc3ccccc3)[C@@H](C)O)ccc1C21OC(=O)c2ccccc21 [Z-TP6.5, (carbobenzyloxycarbonyl-Thr-Pro)2 Rho 110 (pH 6.5)] | – | – | 3.87 | 3.03 | – | 7.19 | 3.12 | 2.83 | 8.33 | 2.29 | 5.37 | Ratio of disease to normal ([2]; JRA): 2.89; Ratio of disease to normal ([2]; Kawasaki's): 5.85
8 | O[C@H](CS)[C@@H](O)CS [dithioerythritol (DTE), dithioerythritol] | – | – | – | – | – | – | – | – | – | – | – | effect on sensitivity of the leaving group for the enzyme ([5]; Ala-Gly and Leu-Gly substrates): does not change the sensitivity; effect on sensitivity of substituted rhodamine 110 substrates ([5]; Pro, Gly, Gln-Ser, Val-Lys-Val-Lys, Ala-Ala, Ala-Ala-Ala-Ala substrates): decreases the sensitivity
9 | [Cl-].[Na+] [sodium chloride] | – | – | – | – | – | – | – | – | – | – | – | inhibitory effect on dipeptide reagent [6]: slightly inhibitory effect
